What all share (test): NCI tumour cell line growth inhibition, 48 h
In test [1] the test system is OVCAR-8.
Test [2] deals with UACC-257.
The subject of test [3] is DU-145.
The test system of test [4] is PC-3.
Test [5] deals with SK-MEL-28.
Test [6] deals with OVCAR-3.
In test [7] the test system is HOP-62.
The test system of test [8] is HCT-116.
Test [9] has as its system HT-29.
Test [10] has as its system KM12.
Test [11] has as its system MDA-MB-435.
For test [12], the system named is HCC 2998.
In test [13] the test system is IGROV-1.
The test system of test [14] is HCT-15.
The subject of test [15] is Malme-3M.
Test [16] relates to COLO 205.
The test system of test [17] is RPMI-8226.
Test [18] relates to UO-31.
In test [19] the test system is RXF 393.
The test system of test [20] is HOP-92.

Experimental findings from ChEMBL document CHEMBL1201862, “PubChem BioAssay data set” (2004) are described below.

Several values for one entry are separate records, joined by “and”; a condition that tells them apart may be missing. Equal values may be shown once.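 Values below derive from 48-hour exposures of cells grown in 96-well plates, with endpoints linearly interpolated between the two concentrations bracketing the appropriate inhibition level. At the GI50, growth is halved.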 Activity calls are given as the source filed them. Rule as the data show it: active = GI50 up to about 1.1 µM and inactive = higher.

As for `S=c1sc2c(s1)SCc1cccc(n1)CSc1sc(=S)sc1SCc1cccc(n1)CS2`, the GI50 in [1], in test [2], in test [3], in [4], in test [5] and in [6] was > 100 µM (inactive) throughout. For the same compound, the GI50 in test [7], in [8], in [9], in [10], in [11] and in test [12] was > 100 µM (inactive) in each case. In addition, the GI50 in test [13] is > 100 µM (inactive); in test [14], greater than 100 µM; in test [15], > 100 µM (inactive); in [16], > 100 µM (inactive); in [17], > 100 µM (inactive); in [18], > 100 µM (inactive).

With `Cc1cccc(-n2c(C)nc3ccc(NC(=S)Nc4ccccc4)cc3c2=O)c1`, the GI50 is 74.3 µM (inactive) in test [1]; 47.6 µM (inactive) in test [2]; 87.7 µM (inactive) in test [3]; 41.6 µM (inactive) in [4]; > 100 µM (inactive) in [5]; 32.4 µM (inactive) in test [6]. The GI50 in [7] is > 100 µM (inactive); in [8], 46.5 µM (inactive); in [19], 62.4 µM (inactive); in [9], 51.9 µM (inactive); in test [10] it was 57.3 µM (inactive); in test [11] it was 56 µM (inactive). The GI50 is 25 µM (inactive) in test [12]; > 100 µM (inactive) in [13]; 68.5 µM in test [14]; 69.2 µM (inactive) in test [15]; 30.6 µM (inactive) in test [16]; 35.2 µM (inactive) in [17]. The GI50 in [18] is 47.4 µM (inactive).

In the case of `O=C(O)CCCc1ccc2c(c1)CC1(C2)Cc2cc3c(cc2C1)CCCC3`, the GI50 was 16.5 µM (inactive) in test [1]; 37.7 µM (inactive) in [2]; 24.6 µM (inactive) in test [4]; 19.3 µM (inactive) in test [6]; 1.98 µM (inactive) in test [7]; 2.56 µM (inactive) in test [8]. In addition, the GI50 in test [19] is 13.2 µM (inactive); in test [9] it was 16.3 µM (inactive); in [10], 19 µM (inactive); in test [20], 23.7 µM (inactive); in test [11] it was 17.3 µM (inactive); in test [12], 19.8 µM (inactive). Also, the GI50 in [13] is 20 µM (inactive); in [14], 8.3 µM; in test [15], 22 µM (inactive); in [16], 19.9 µM (inactive); in test [17], 28 µM (inactive); in test [18] it was 19.4 µM (inactive).

As to `CS(=O)(=O)c1ccc(NNc2cc(=O)[nH]c(=O)[nH]2)cc1`, the GI50 in test [2], in test [3], in [4], in test [5], in test [6] and in test [7] was > 100 µM (inactive) in each case. In addition, the GI50 is > 100 µM (inactive) in test [8]; > 100 µM (inactive) in [19]; > 100 µM (inactive) in [9]; > 100 µM (inactive) in test [10]; 47.8 µM (inactive) in [20]; > 100 µM (inactive) in [12]. Also, the GI50 in test [13] was > 100 µM (inactive); in test [14], greater than 100 µM; in test [15], > 100 µM (inactive); in test [16], > 100 µM (inactive); in [17] it was > 100 µM (inactive); in test [18] it was > 100 µM (inactive).

As to `CSC1=N[C@H](c2ccccc2)CS1`, the GI50 in [2], in test [3], in [4], in [5], in test [6] and in [7] was > 100 µM (inactive) throughout. Moreover, the GI50 in [8], in test [9], in [10], in [11], in test [12] and in test [13] was > 100 µM (inactive) each time. The GI50 in test [14] was greater than 100 µM; in test [16] it was > 100 µM (inactive); in test [17] it was > 100 µM (inactive); in test [18], > 100 µM (inactive).

Regarding `CCOC(=O)c1c(-c2ccccc2)nc2ccccc2c1O`, the GI50 in test [1], in test [2], in [3], in [4], in [5] and in test [7] was > 100 µM (inactive) throughout. The GI50 in test [8], in test [19], in test [9], in [10], in [20] and in test [12] was > 100 µM (inactive) throughout. In addition, the GI50 in [13] was > 100 µM (inactive); in test [14], greater than 100 µM; in [15], > 100 µM (inactive); in test [16], > 100 µM (inactive); in test [17] it was > 100 µM (inactive); in [18], > 100 µM (inactive).

For `COC(=O)CCC1=C(CC(=O)OC)C(C)(OC)N/C1=N/C(=O)OCc1ccccc1` (stereo not given), the GI50 in [1], in test [2], in test [3], in test [4], in test [5] and in [7] was > 100 µM (inactive) in each case. Moreover, the GI50 in test [8], in test [19], in test [9], in test [10], in test [11] and in [12] was > 100 µM (inactive) in each case. Moreover, the GI50 in test [13] is > 100 µM (inactive); in test [14] it was greater than 100 µM; in test [15], > 100 µM (inactive); in test [16], > 100 µM (inactive); in [17], > 100 µM (inactive); in [18], > 100 µM (inactive).

Consider `COc1ccc(-c2c(C#N)c(N)n(C3OC(CO)C(O)C(O)C3O)c(=S)c2C#N)cc1` (stereo not given), for which the GI50 is > 100 µM (inactive) in test [1]; > 100 µM (inactive) in test [2]; > 100 µM (inactive) in test [3]; > 100 µM (inactive) and 99.1 µM (inactive) in test [4]; > 100 µM (inactive) in [5]; > 100 µM (inactive) and 97.7 µM (inactive) in test [6]. Moreover, the GI50 was > 100 µM (inactive) and 51.9 µM (inactive) in [7]; > 100 µM (inactive) in test [8]; > 100 µM (inactive) in [19]; > 100 µM (inactive) in test [9]; > 100 µM (inactive) in test [10]; 20.2 µM (inactive) in test [20]. Also, the GI50 is > 100 µM (inactive) in test [12]; 72.1 µM (inactive) in test [13]; greater than 100 µM in test [14]; > 100 µM (inactive) in test [15]; > 100 µM (inactive) in test [17]; 82.2 µM (inactive) in [18].

Turning to `Cc1ccc(C(=O)Nc2ccc(S(=O)(=O)O)c3cc(S(=O)(=O)O)cc(S(=O)(=O)O)c23)cc1NC(=O)c1cccc(N)c1`, the GI50 in test [1], in [2], in [4], in [5], in test [6] and in [7] was > 100 µM (inactive) throughout. Also, the GI50 in test [19] was > 100 µM (inactive); in test [9], > 100 µM (inactive); in [10], > 100 µM (inactive); in [12], > 100 µM (inactive); in test [13] it was > 100 µM (inactive); in test [14] it was greater than 100 µM. Moreover, the GI50 was 1.05 µM (active) in test [15], > 100 µM (inactive) in test [16] and > 100 µM (inactive) in test [18].

Turning to `C=CCOc1cc2c(cc1C(C)c1ccc(OC)cc1)OCO2` (stereo not given), the GI50 in test [1] is 0.624 µM (active); in [2], 0.263 µM (active); in [3], 10.6 µM (inactive); in [4], 0.352 µM (active); in test [5], > 100 µM (inactive); in test [6] it was 0.429 µM (active). Also, the GI50 in test [7] was 0.495 µM (active); in test [8], 0.525 µM (active); in test [19], 0.091 µM (active); in test [9], 0.286 µM (active); in test [10], 0.372 µM (active); in test [11] it was 0.251 µM (active). For the same compound, the GI50 in test [12] is 0.887 µM (active); in [14], 0.489 µM; in test [15] it was 0.647 µM (active); in [16], 0.471 µM (active); in test [17], 0.78 µM (active); in test [18], 0.583 µM (active).

Turning to `CCOC(=O)c1nc2ccccc2nc1NCc1ccc(OC)cc1`, the GI50 in [1], in test [2], in test [3], in test [5], in test [6] and in [7] was > 100 µM (inactive) each time. Further, the GI50 is 54.8 µM (inactive) in [8]; 23.4 µM (inactive) in test [19]; 96.4 µM (inactive) in test [9]; 44.6 µM (inactive) in test [10]; > 100 µM (inactive) in test [20]; > 100 µM (inactive) in test [11]. The GI50 in test [12] was > 100 µM (inactive); in test [13], > 100 µM (inactive); in test [14] it was greater than 100 µM; in test [15], > 100 µM (inactive); in test [16], > 100 µM (inactive); in test [17], > 100 µM (inactive). Besides, in test [18], the GI50 was > 100 µM (inactive).
